Reference: the supplement of paper PMC10307832

Compound: NC(=O)c1ccc(N(C(N)=O)c2c(F)cccc2F)nc1-c1ccc(F)cc1F [VX-702] + C[C@]1(O)C[C@@H](c2nc(-c3ccc4ccc(-c5ccccc5)nc4c3)c3c(N)nccn32)C1 [Linsitinib] (partner 1 µM)
Experiment: relative viability (nuclei count vs DMSO), 5 days (fraction); higher = more cells survive
Conditions: first compound 0.02 µM
In short: (§1)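 After 5 days of treatment, lung cancer cells in 1536-well plates were fixed and stained in a single step (final 0.05% Triton X-100, 1% formaldehyde, 1 ug/ml Hoechst) and their nuclei counted on 4× images. Treatment had been applied by pin tool the day after seeding as one drug alone or as a fixed anchor-drug dose with five library-drug doses (not always all listed) in √10 steps. Relative viability is the nuclei count of treated wells divided by that of vehicle wells, and values are medians of duplicate plates.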

Cell Line | relative viability
NCI-H1792 | 0.404
HCC-15 | 0.825
LU99A | 0.511
EKVX | 0.946
COR-L23 | 1.09
NCI-H1437 | 1.1
RERF-LC-KJ | 0.956
NCI-H1734 | 0.977
BEN | 0.828
NCI-H460 | 0.879
H3255 | 0.941
SK-LU-1 | 1.06
NCI-H1793 | 0.815
NCI-H23 | 0.517
SW 1573 | 0.918
NCI-H838 | 1.01
EPLC-272H | 1
NCI-H3122 | 1.02
NCI-H1915 | 1.11

Cell Line | relative viability
NCI-H727 | 0.516
NCI-H1975 | 1.01
LK-2 | 0.711
NCI-H2087 | 1.07
LCLC-97TM1 | 0.131
NCI-H661 | 0.523
NCI-H2405 | 0.914
NCI-H1993 | 0.712
PC-3 [JPC-3] | 0.966
NCI-H2009 | 1.33
NCI-H2347 | 0.968
NCI-H520 | 0.962
LXF-289 | 0.941
NCI-H358 | 0.748
LC-2-ad | 0.778
201T | 0.958
NCI-H1666 | 0.878
NCI-H2023 | 0.568
NCI-H322M | 0.999

Same assay, conditions: first compound 0.2 µM

Cell Line | relative viability
NCI-H1792 | 0.484
HCC-15 | 0.766
LU99A | 0.517
EKVX | 1.01
COR-L23 | 1.06
NCI-H1437 | 1.02
RERF-LC-KJ | 0.883
NCI-H1734 | 0.769
BEN | 0.798
NCI-H460 | 0.837
H3255 | 0.856
SK-LU-1 | 1.03
NCI-H1793 | 0.73
NCI-H23 | 0.528
SW 1573 | 0.737
NCI-H838 | 0.959
EPLC-272H | 1.1
NCI-H3122 | 1.02
NCI-H1915 | 1.14

Cell Line | relative viability
NCI-H727 | 0.271
NCI-H1975 | 0.998
LK-2 | 0.436
NCI-H2087 | 0.982
LCLC-97TM1 | 0.189
NCI-H661 | 0.587
NCI-H2405 | 0.981
NCI-H1993 | 0.718
PC-3 [JPC-3] | 1.01
NCI-H2009 | 1.23
NCI-H2347 | 0.977
NCI-H520 | 0.936
LXF-289 | 0.961
NCI-H358 | 0.728
LC-2-ad | 0.799
201T | 1.03
NCI-H1666 | 0.86
NCI-H2023 | 0.561
NCI-H322M | 0.905

Same assay, conditions: first compound 0.6325 µM

Cell Line | relative viability
NCI-H1792 | 0.458
HCC-15 | 0.843
LU99A | 0.466
EKVX | 1.01
COR-L23 | 0.959
NCI-H1437 | 1.09
RERF-LC-KJ | 0.876
NCI-H1734 | 0.794
BEN | 0.967
NCI-H460 | 0.825
H3255 | 0.866
SK-LU-1 | 1.08
NCI-H1793 | 0.687
NCI-H23 | 0.545
SW 1573 | 0.647
NCI-H838 | 0.977
EPLC-272H | 1.13
NCI-H3122 | 0.985
NCI-H1915 | 1.08

Cell Line | relative viability
NCI-H727 | 0.259
NCI-H1975 | 0.887
NCI-H2087 | 0.879
LCLC-97TM1 | 0.172
NCI-H661 | 0.5
NCI-H2405 | 0.896
NCI-H1993 | 0.745
PC-3 [JPC-3] | 1.03
NCI-H2009 | 1.21
NCI-H2347 | 0.896
NCI-H520 | 0.915
LXF-289 | 0.931
NCI-H358 | 0.613
LC-2-ad | 0.922
201T | 0.986
NCI-H1666 | 0.747
NCI-H2023 | 0.629
NCI-H322M | 0.918

Same assay, conditions: first compound 2 µM

Cell Line | relative viability
NCI-H1792 | 0.5
HCC-15 | 0.952
LU99A | 0.515
EKVX | 0.988
COR-L23 | 1.26
NCI-H1437 | 1.3
RERF-LC-KJ | 0.966
NCI-H1734 | 0.763
BEN | 0.852
NCI-H460 | 0.814
H3255 | 0.929
SK-LU-1 | 1.22
NCI-H1793 | 0.974
NCI-H23 | 0.754
SW 1573 | 0.659
NCI-H838 | 1.2
EPLC-272H | 1.28
NCI-H3122 | 1.01
NCI-H1915 | 1.08

Cell Line | relative viability
NCI-H727 | 0.306
NCI-H1975 | 1.17
LK-2 | 0.542
NCI-H2087 | 1.01
LCLC-97TM1 | 0.207
NCI-H661 | 0.826
NCI-H2405 | 0.982
NCI-H1993 | 0.8
PC-3 [JPC-3] | 1.05
NCI-H2009 | 1.34
NCI-H2347 | 0.986
NCI-H520 | 0.925
LXF-289 | 0.96
NCI-H358 | 0.963
LC-2-ad | 0.885
201T | 0.987
NCI-H1666 | 0.855
NCI-H2023 | 0.612
NCI-H322M | 0.883

Compound: NC(=O)c1ccc(N(C(N)=O)c2c(F)cccc2F)nc1-c1ccc(F)cc1F [VX-702] + CC(=O)Nc1cccc(-n2c(=O)n(C3CC3)c(=O)c3c(Nc4ccc(I)cc4F)n(C)c(=O)c(C)c32)c1 [Trametinib] (partner 0.02 µM)
Experiment: as above
Conditions: first compound 0.02 µM
In short: as §1

Cell Line | relative viability
NCI-H1792 | 0.425
HCC-15 | 0.345
LU99A | 0.563
EKVX | 0.241
COR-L23 | 0.715
NCI-H1437 | 0.519
RERF-LC-KJ | 0.749
NCI-H1734 | 0.734
BEN | 1.1
NCI-H460 | 0.209
H3255 | 0.488
SK-LU-1 | 0.497
NCI-H1793 | 0.438
NCI-H23 | 0.4
SW 1573 | 0.569
NCI-H838 | 0.535
EPLC-272H | 0.296
NCI-H3122 | 0.24
NCI-H1915 | 0.324

Cell Line | relative viability
NCI-H727 | 0.387
NCI-H1975 | 0.383
LK-2 | 0.591
NCI-H2087 | 0.201
LCLC-97TM1 | 0.197
NCI-H661 | 0.682
NCI-H2405 | 0.58
NCI-H1993 | 0.607
PC-3 [JPC-3] | 0.644
NCI-H2009 | 0.284
NCI-H2347 | 0.188
NCI-H520 | 0.712
LXF-289 | 0.718
NCI-H358 | 0.147
LC-2-ad | 0.948
201T | 0.733
NCI-H1666 | 0.89
NCI-H2023 | 0.497
NCI-H322M | 0.543

Same assay, conditions: first compound 0.2 µM

Cell Line | relative viability
NCI-H1792 | 0.394
HCC-15 | 0.364
LU99A | 0.532
EKVX | 0.291
COR-L23 | 0.602
NCI-H1437 | 0.447
RERF-LC-KJ | 0.872
NCI-H1734 | 0.683
BEN | 0.907
NCI-H460 | 0.172
SK-LU-1 | 0.472
NCI-H23 | 0.411
SW 1573 | 0.467
NCI-H838 | 0.521
EPLC-272H | 0.279
NCI-H3122 | 0.201
NCI-H1915 | 0.294
NCI-H727 | 0.381

Cell Line | relative viability
NCI-H1975 | 0.35
LK-2 | 0.696
NCI-H2087 | 0.181
LCLC-97TM1 | 0.192
NCI-H661 | 0.599
NCI-H2405 | 0.593
NCI-H1993 | 0.495
PC-3 [JPC-3] | 0.76
NCI-H2009 | 0.28
NCI-H2347 | 0.314
NCI-H520 | 0.799
LXF-289 | 0.648
NCI-H358 | 0.143
LC-2-ad | 0.916
201T | 0.756
NCI-H1666 | 0.819
NCI-H2023 | 0.458
NCI-H322M | 0.499

Same assay, conditions: first compound 0.6325 µM

Cell Line | relative viability
NCI-H1792 | 0.397
HCC-15 | 0.322
LU99A | 0.512
EKVX | 0.307
COR-L23 | 0.686
NCI-H1437 | 0.464
RERF-LC-KJ | 0.86
NCI-H1734 | 0.544
BEN | 1.03
NCI-H460 | 0.166
H3255 | 0.581
SK-LU-1 | 0.486
NCI-H1793 | 0.452
NCI-H23 | 0.392
SW 1573 | 0.473
NCI-H838 | 0.525
EPLC-272H | 0.279
NCI-H3122 | 0.206
NCI-H1915 | 0.302

Cell Line | relative viability
NCI-H727 | 0.382
NCI-H1975 | 0.29
LK-2 | 0.568
NCI-H2087 | 0.186
LCLC-97TM1 | 0.185
NCI-H661 | 0.637
NCI-H2405 | 0.615
NCI-H1993 | 0.527
PC-3 [JPC-3] | 0.768
NCI-H2009 | 0.255
NCI-H2347 | 0.384
NCI-H520 | 0.589
LXF-289 | 0.691
NCI-H358 | 0.126
LC-2-ad | 0.921
201T | 0.744
NCI-H1666 | 0.883
NCI-H2023 | 0.458
NCI-H322M | 0.518

Same assay, conditions: first compound 2 µM

Cell Line | relative viability
NCI-H1792 | 0.482
HCC-15 | 0.294
LU99A | 0.5
EKVX | 0.281
COR-L23 | 0.69
NCI-H1437 | 0.497
RERF-LC-KJ | 0.919
NCI-H1734 | 0.68
BEN | 1.07
NCI-H460 | 0.0854
H3255 | 0.662
SK-LU-1 | 0.651
NCI-H1793 | 0.451
NCI-H23 | 0.413
SW 1573 | 0.649
NCI-H838 | 0.6
EPLC-272H | 0.273
NCI-H3122 | 0.203
NCI-H1915 | 0.319

Cell Line | relative viability
NCI-H727 | 0.359
NCI-H1975 | 0.329
LK-2 | 0.788
NCI-H2087 | 0.228
LCLC-97TM1 | 0.202
NCI-H661 | 0.71
NCI-H2405 | 0.618
NCI-H1993 | 0.576
PC-3 [JPC-3] | 0.855
NCI-H2009 | 0.272
NCI-H2347 | 0.282
NCI-H520 | 0.649
LXF-289 | 0.703
NCI-H358 | 0.143
LC-2-ad | 0.97
201T | 0.774
NCI-H1666 | 0.739
NCI-H2023 | 0.558
NCI-H322M | 0.613

Compound: NC(=O)c1ccc(N(C(N)=O)c2c(F)cccc2F)nc1-c1ccc(F)cc1F [VX-702] + CCNC(=O)c1noc(-c2cc(C(C)C)c(O)cc2O)c1-c1ccc(CN2CCOCC2)cc1 [Luminespib] (partner 0.01 µM)
Experiment: as above
Conditions: first compound 0.02 µM
In short: as §1

Cell Line | relative viability
NCI-H1792 | 0.331
HCC-15 | 0.26
LU99A | 0.27
EKVX | 0.899
COR-L23 | 0.749
NCI-H1437 | 1.17
RERF-LC-KJ | 1.19
NCI-H1734 | 0.225
BEN | 0.374
NCI-H460 | 0.0333
H3255 | 1.09
